For one test, the target named is T1, Ba/F3-KIF5B-RET cell (Homo sapiens, UniProt P07949).
T1 construct: fused on or other part: P33176 (Kinesin-1 heavy chain)
The test is described as follows: CellTiter-Glo luminescence assay, inhibitory activity against Ba/F3-KIF5B-RET cell. Format: cell-based. The note with it: 72 h, read-out: Ba/F3-KIF5B-RET cell activity. An excerpt: (C) In Vitro Screening Experiment - CellTiter-Glo Luminescence Assay for Testing The inhibitory activity of compounds against Ba/F3-KIF5B-RET cell
• 1. The mammalian cell expression vector containing human KIF5B-RET cDNA was introduced into Ba/F3 cells using the Neon® transfection system method, and the surviving clones screened by puromycin were subjected to cell growth inhibitory function experiments and Western blotting to verify cell lines with stable and high expression of RET. • 2. Cells were cultured in RPMI 1640 medium containing 10% fetal bovine serum, 1% penicillin-streptomycin, and 2 µg/mL puromycin, and then placed in a 37° C., 5% carbon dioxide cell incubator. • 3. The test compound (5 mM stock) was diluted 2.5 folds to […] with 100% dimethyl sulfoxide; and the compound was diluted into 10 concentrations at an equal ratio of 1:3 in a 384-well dilution plate. • 4. 0.2 µL of the serially diluted compound was added to a 384-well cell culture plate (Corning, 3570) using an Echo 550 pipetting system, 2 replicate wells for each concentration, and the final concentration of dimethyl sulfoxide was 0.5% (v/v). The gradient concentrations of the test compound were 5000, 1666.7, 555.5, 185.18, 61.72, 20.57, 6.858, 2.286, 0.764, 0.254 nM. • 5. 40 µL of Ba/F3-KIF5B-RET cell suspension containing 800 cells was added to each well, and incubated for 72 h in a 5% CO2 cell incubator. • 6. 20 µL of Cell Titer-Glo reagent was added to each well of the cell culture plate, and the culture system was then shaken and mixed thoroughly for 2 min to lyse the cells, the cells were then incubated at room temperature for 30 min, and the […] signal values were then read with an Envision 2104 microplate reader. • 7. By fitting the data with XLFit 5.0 based on the parameters formula, the IC50 value was calculated as: • [formula]

The target of another test is Wild-type RET kinase (Homo sapiens, UniProt P07949). In words: HTRF method for testing the inhibitory activity of compounds against RET. Format: biochemical. To be noted: HTRF; read-out: Wild-type RET kinase.
Chain of Wild-type RET kinase (P07949 29-1114): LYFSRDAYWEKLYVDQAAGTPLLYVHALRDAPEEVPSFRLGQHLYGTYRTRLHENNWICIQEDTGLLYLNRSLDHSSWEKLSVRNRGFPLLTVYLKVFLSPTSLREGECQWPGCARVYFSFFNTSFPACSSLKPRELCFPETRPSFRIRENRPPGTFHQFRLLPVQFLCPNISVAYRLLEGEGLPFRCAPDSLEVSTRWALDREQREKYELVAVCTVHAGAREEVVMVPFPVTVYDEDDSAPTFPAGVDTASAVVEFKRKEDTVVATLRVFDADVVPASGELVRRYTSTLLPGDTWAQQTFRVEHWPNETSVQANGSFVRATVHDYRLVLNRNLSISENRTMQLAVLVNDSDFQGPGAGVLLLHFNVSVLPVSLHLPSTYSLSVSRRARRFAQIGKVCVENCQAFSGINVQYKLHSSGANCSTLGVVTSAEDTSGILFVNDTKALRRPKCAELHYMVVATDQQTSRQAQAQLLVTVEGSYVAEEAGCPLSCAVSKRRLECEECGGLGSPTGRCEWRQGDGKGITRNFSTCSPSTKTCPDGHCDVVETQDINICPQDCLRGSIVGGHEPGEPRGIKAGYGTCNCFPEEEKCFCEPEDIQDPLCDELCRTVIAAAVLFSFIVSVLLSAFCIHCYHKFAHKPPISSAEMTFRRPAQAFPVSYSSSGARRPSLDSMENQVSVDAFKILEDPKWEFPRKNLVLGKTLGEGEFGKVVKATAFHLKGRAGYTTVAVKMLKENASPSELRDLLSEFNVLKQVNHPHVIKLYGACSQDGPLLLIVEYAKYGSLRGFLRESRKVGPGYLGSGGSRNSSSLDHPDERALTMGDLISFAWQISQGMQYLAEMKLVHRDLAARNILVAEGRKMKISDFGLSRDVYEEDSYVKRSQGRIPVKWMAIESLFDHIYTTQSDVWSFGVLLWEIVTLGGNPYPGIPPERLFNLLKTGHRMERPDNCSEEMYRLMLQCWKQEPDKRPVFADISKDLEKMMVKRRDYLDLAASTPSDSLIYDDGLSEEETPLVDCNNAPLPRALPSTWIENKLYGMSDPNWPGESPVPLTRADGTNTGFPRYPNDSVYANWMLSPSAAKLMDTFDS
The target of another test is VEGFR2 kinase (Homo sapiens, UniProt P35968). The test is described as follows: HTRF method for testing the inhibitory activity of compounds against VEGFR2. Format: biochemical.
Chain of VEGFR2 kinase (P35968 20-1356): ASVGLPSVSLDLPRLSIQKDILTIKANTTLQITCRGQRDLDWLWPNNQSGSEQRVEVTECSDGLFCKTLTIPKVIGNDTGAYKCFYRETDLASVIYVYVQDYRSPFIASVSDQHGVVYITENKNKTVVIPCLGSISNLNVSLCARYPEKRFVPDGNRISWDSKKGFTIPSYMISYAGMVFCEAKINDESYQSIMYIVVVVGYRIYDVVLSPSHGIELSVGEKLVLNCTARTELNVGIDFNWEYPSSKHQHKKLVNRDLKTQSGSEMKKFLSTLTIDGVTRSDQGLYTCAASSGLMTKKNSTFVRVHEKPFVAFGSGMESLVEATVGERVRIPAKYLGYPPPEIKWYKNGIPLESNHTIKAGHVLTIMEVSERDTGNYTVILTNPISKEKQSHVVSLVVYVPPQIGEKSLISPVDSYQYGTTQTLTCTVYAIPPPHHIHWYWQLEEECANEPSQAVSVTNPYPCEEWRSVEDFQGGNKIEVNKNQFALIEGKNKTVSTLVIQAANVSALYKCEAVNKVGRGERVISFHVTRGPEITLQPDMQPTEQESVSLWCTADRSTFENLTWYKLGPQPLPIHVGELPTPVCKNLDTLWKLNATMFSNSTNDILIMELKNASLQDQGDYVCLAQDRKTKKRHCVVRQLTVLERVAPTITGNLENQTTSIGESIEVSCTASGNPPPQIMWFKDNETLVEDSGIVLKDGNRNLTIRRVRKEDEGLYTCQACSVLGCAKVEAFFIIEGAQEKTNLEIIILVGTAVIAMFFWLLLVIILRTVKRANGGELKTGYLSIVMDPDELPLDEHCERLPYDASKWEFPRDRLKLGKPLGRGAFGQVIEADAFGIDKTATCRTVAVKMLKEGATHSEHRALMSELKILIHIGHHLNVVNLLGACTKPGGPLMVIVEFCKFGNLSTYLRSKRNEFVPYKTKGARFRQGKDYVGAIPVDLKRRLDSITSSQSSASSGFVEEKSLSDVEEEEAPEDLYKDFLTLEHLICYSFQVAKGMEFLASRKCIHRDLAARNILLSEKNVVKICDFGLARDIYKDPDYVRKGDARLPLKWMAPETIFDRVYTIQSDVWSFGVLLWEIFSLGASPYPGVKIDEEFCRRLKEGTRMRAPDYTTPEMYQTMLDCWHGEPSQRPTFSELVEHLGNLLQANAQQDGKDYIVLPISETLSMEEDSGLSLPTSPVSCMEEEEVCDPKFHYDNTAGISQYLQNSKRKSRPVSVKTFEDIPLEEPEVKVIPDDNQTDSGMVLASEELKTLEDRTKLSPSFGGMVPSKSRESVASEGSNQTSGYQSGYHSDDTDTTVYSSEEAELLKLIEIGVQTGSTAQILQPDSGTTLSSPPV
The target of the next test is RET G810R kinase (Homo sapiens, UniProt P07949, G810R). In words: HTRF method for testing the inhibitory activity against RET G810R. Format: biochemical. To be noted: for IC50: HTRF; for inhibitory activity against G810R (in words): mutant strain of RET kinase.
Chain of RET G810R kinase (P07949 29-1114 G810R): as the sequence (P07949 29-1114) above, with G782R counted along it
Another test has as its target RET G810S kinase (Homo sapiens, UniProt P07949, G810S). The test is described as follows: HTRF method for testing the inhibitory activity against RET G810S. Format: biochemical. To be noted: for IC50: HTRF; for inhibitory activity against G810S (in words): mutant strain of RET kinase.

Chain of RET G810S kinase (P07949 29-1114 G810S): as the sequence (P07949 29-1114) above, with G782S counted along it
T1 sequence (P07949 whole entry, change not shown, the tested form may be a part): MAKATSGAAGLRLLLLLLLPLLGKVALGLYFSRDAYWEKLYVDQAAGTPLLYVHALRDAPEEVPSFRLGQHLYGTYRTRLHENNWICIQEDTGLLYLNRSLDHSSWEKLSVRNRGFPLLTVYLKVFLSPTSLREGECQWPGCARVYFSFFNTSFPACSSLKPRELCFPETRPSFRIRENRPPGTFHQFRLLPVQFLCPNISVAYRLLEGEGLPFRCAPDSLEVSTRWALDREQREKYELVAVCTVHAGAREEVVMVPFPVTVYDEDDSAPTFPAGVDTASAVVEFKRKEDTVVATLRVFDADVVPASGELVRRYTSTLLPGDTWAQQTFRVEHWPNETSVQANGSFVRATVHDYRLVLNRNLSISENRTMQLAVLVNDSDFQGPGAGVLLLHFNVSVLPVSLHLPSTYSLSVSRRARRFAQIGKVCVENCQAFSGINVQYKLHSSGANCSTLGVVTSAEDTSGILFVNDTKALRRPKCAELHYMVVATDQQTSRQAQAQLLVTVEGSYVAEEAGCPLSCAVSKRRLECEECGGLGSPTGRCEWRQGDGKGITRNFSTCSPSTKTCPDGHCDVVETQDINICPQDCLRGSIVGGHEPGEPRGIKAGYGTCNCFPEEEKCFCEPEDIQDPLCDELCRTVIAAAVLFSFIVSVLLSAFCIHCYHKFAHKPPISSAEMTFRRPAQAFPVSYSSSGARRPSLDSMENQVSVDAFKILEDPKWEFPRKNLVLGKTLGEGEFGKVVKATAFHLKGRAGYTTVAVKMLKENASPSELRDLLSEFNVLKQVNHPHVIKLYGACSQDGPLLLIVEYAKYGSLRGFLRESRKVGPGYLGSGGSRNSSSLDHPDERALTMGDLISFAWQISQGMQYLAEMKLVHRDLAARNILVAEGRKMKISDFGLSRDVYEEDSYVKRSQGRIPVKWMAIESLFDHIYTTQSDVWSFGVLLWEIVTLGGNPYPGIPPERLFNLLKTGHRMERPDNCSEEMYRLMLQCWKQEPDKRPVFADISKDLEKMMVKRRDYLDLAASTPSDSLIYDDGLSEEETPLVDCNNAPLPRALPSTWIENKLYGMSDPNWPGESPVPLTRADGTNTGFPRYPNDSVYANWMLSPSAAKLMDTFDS

On to `COc1ccc(CN2C3CC2CN(c2cnc(-c4cc(OCCN5CC6(COC6)C5)cn5ncc(C#N)c45)cn2)C3)cn1` [Compound 36, 6-(2-(2-oxa-6-azaspiro[3.3]hept-6-yl)ethoxy)-4-(5-(6-((6-methoxypyridin-3-yl)methyl)-3,6-diazabicyclo[3.1.1]heptan-3-yl)pyrazin-2-yl)pyrazolo[1,5-a]pyridine-3-carbonitrile], for which the GI50 at Ba/F3-KIF5B-RET cell stood at 32.1 nM. The IC50 at Wild-type RET kinase was 2.44 nM; against VEGFR2 kinase, 454 nM.

`COc1ccc(CN2C3CC2CN(c2cnc(-c4cc(OCCN5CC6CCC5C6)cn5ncc(C#N)c45)cn2)C3)cn1` (stereo not drawn) [Compound 38, 6-(2-(2-azabicyclo[2.2.1]hept-2-yl)ethoxy)-4-(5-(6-((6-methoxypyridine-3-yl)methyl)-3,6-diazabicyclo[3.1.1]heptan-3-yl)pyrazin-2-yl)pyrazolo[1,5-a]pyridine-3-carbonitrile]: the GI50 at Ba/F3-KIF5B-RET cell worked out at 37.3 nM. Moreover, the IC50 at Wild-type RET kinase was found to be 3.22 nM; against VEGFR2 kinase, 666 nM.

Take `COc1ccc(CN2C3CC2CN(c2cnc(-c4cc(OCC(C)(C)C#N)cn5ncc(C#N)c45)cn2)C3)cn1` [Compound 39, 6-(2-cyano-2-methylpropoxy)-4-(5-(6-((6-methoxypyridin-3-yl)methyl)-3,6-diazabicyclo[3.1.1]heptan-3-yl)pyrazinpyridin-2-yl)pyrazolo[1,5-a]pyridine-3-carbonitrile]: the GI50 at Ba/F3-KIF5B-RET cell worked out at 15.6 nM. Besides, the IC50 at Wild-type RET kinase stood at 1.25 nM; against VEGFR2 kinase, 259 nM.

On to `COc1ccc(CN2C3CC2CN(c2cnc(-c4cc(OCC5C[C@H]6CC[C@@H](C5)N6)cn5ncc(C#N)c45)cn2)C3)cn1` (stereo partly drawn) [Compound 40, 6-(((1R, 5S)-8-azabicyclo[3.2.1]oct-3-yl)methoxy)-4-(5-(6-((6-methoxypyridine-3-yl)methyl)-3,6diazabicyclo[3.1.1]heptan-3-yl)pyrazin-2-yl)pyrazolo[1,5-a]pyridine-3-carbonitrile], for which the GI50 at Ba/F3-KIF5B-RET cell turned out to be 208 nM. Also, the IC50 on Wild-type RET kinase was 0.86 nM; against VEGFR2 kinase, 112 nM.

Take `CNc1cc(-c2ccc(N3CC4CC(C3)N4Cc3ccc(OC)nc3)nc2)c2c(C#N)cnn2c1` [Compound 47, 4-(6-(6-((6-methoxypyridin-3-yl)methyl)-3,6-diazabicyclo[3.1.1]heptyl-3-yl)pyridin-3-yl)-6-(methylamino)pyrazolo[1,5-a]pyridine-3-carbonitrile]: at Ba/F3-KIF5B-RET cell, the GI50 turned out to be 1.42 nM. The IC50 on Wild-type RET kinase is 0.04 nM; on VEGFR2 kinase, 33.7 nM; against RET G810R kinase, 8.93 nM; at RET G810S kinase it was 1.23 nM. The “inhibitory activity against G810R (in words)” value at RET G810R kinase is given as “good inhibitory activity”. The “inhibitory activity against G810S (in words)” value against RET G810S kinase is listed as “good inhibitory activity”.

In the case of `COc1ccc(CN2C3CC2CN(c2ccc(-c4cc(Br)cn5ncc(C#N)c45)cn2)C3)cn1` [Compound 48], the GI50 at Ba/F3-KIF5B-RET cell worked out at 105 nM. The IC50 at Wild-type RET kinase stood at 2.89 nM; against VEGFR2 kinase, 875 nM; against RET G810R kinase it was 63.2 nM; on RET G810S kinase it was 13 nM. For the same compound, the “inhibitory activity against G810R (in words)” value on RET G810R kinase is listed as “good inhibitory activity”. In addition, the “inhibitory activity against G810S (in words)” value against RET G810S kinase was “good inhibitory activity”.

On to `COc1ccc(CN2C3CC2CN(c2ccc(-c4cc(NCCF)cn5ncc(C#N)c45)cn2)C3)cn1` [Compound 49, 6-((2-fluoroethyl)amino)-4-(6-(6-((6-methoxypyridin-3-yl)methyl)-3,6-diazabicyclo[3.1.1]hept-3-yl)pyridin-3-yl)pyrazolo[1,5-a]pyridine-3-carbonitrile], for which the GI50 on Ba/F3-KIF5B-RET cell came to 1.52 nM. The IC50 stood at 0.19 nM at Wild-type RET kinase, 28.4 nM against VEGFR2 kinase, 1.85 nM at RET G810R kinase and 0.53 nM at RET G810S kinase. At RET G810R kinase, the “inhibitory activity against G810R (in words)” value is “good inhibitory activity”. For the same compound, at RET G810S kinase, the “inhibitory activity against G810S (in words)” value was “good inhibitory activity”.

On to `COc1ccc(CN2C3CC2CN(c2ccc(-c4cc(NCC(F)F)cn5ncc(C#N)c45)cn2)C3)cn1` [Compound 50], for which the GI50 at Ba/F3-KIF5B-RET cell was 5.75 nM. For the same compound, the IC50 on Wild-type RET kinase turned out to be 0.13 nM; on VEGFR2 kinase, 59.3 nM; at RET G810R kinase, 5.65 nM; at RET G810S kinase, 1.35 nM. The “inhibitory activity against G810R (in words)” value on RET G810R kinase is recorded as “good inhibitory activity”. In addition, on RET G810S kinase, the “inhibitory activity against G810S (in words)” value was “good inhibitory activity”.

On to `COc1ccc(CN2C3CC2CN(c2ccc(-c4cc(N5CCCC5)cn5ncc(C#N)c45)cn2)C3)cn1` [Compound 55, 4-(6-(6-((6-methoxypyridin-3-yl)methyl)-3,6-diazabicyclo[3.1.1]heptyl-3-yl)pyridin-3-yl)-6-(pyrrolidin-1-yl)pyrazolo[1,5-a]pyridine-3-carbonitrile], for which the GI50 at Ba/F3-KIF5B-RET cell amounted to 6.77 nM. The IC50 was 0.49 nM at Wild-type RET kinase and 8.48 nM on VEGFR2 kinase.

Turning to `COc1ccc(CN2C3CC2CN(c2ccc(-c4cc(NCC(F)(F)F)cn5ncc(C#N)c45)cn2)C3)cn1` [Compound 56, 4-(6-(6-((6-methoxypyridin-3-yl)methyl)-3,6-diazabicyclo[3.1.1]heptan-3-yl)pyridin-3-yl)-6-((2,2,2-trifluoroethyl)amino)pyrazolo[1,5-a]pyridine-3-carbonitrile], the GI50 at Ba/F3-KIF5B-RET cell is 8.53 nM. The IC50 was 0.2 nM at Wild-type RET kinase, 103 nM against VEGFR2 kinase, 19.3 nM at RET G810R kinase and 4.73 nM against RET G810S kinase. The “inhibitory activity against G810R (in words)” value against RET G810R kinase is reported as “good inhibitory activity”. The “inhibitory activity against G810S (in words)” value against RET G810S kinase is “good inhibitory activity”.

`CCCNc1cc(-c2ccc(N3CC4CC(C3)N4Cc3ccc(OC)nc3)nc2)c2c(C#N)cnn2c1` [Compound 57, 4-(6-(6-((6-methoxypyridin-3-yl)methyl)-3,6-diazabicyclo[3.1.1]heptan-3-yl)pyridin-3-yl)-6-(propylamino)pyrazolo[1,5-a]pyridine-3-carbonitrile]: the GI50 at Ba/F3-KIF5B-RET cell was found to be 1.24 nM. In addition, the IC50 at Wild-type RET kinase turned out to be 0.32 nM; at VEGFR2 kinase, 31.3 nM; against RET G810R kinase, 10.6 nM; against RET G810S kinase, 2.33 nM. At RET G810R kinase, the “inhibitory activity against G810R (in words)” value is listed as “good inhibitory activity”. The “inhibitory activity against G810S (in words)” value at RET G810S kinase is “good inhibitory activity”.

As to `COc1ccc(CN2C3CC2CN(c2ccc(-c4cc(NCC(=O)N(C)C)cn5ncc(C#N)c45)cn2)C3)cn1` [Compound 59, 2-((3-cyano-4-(6-(6-((6-methoxypyridin-3-yl)methyl)-3,6-diazabicyclo[3.1.1]heptan-3-yl)pyridin-3-yl)pyrazolo[1,5-a]pyridin-6-yl)amino)-N,N-dimethylacetamide], the GI50 on Ba/F3-KIF5B-RET cell was determined as 11.9 nM. Further, the IC50 on Wild-type RET kinase amounted to 1.69 nM; on VEGFR2 kinase, 93.8 nM.

With `COc1ccc(CN2C3CC2CN(c2ccc(-c4cc(N(C)CCN(C)C)cn5ncc(C#N)c45)cn2)C3)cn1` [Compound 61], the GI50 at Ba/F3-KIF5B-RET cell was found to be 60.4 nM. The results for the IC50 on Wild-type RET kinase and against VEGFR2 kinase were 1.1 nM and 482 nM, respectively.

The values above are taken from patent US20230219979A1, “PYRAZOLO[1,5-a]PYRIDINE COMPOUND, PREPARATION METHOD THEREFOR AND USE THEREOF” (SHENZHEN ZHONGGE BIOLOGICAL TECHNOLOGY CO., LTD., priority 2019, published 2023).
